# Reference: PubChem BioAssay (NCI)
#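 Cultured in 96-well plates, cells were exposed to test compound for 48 hours across five concentrations. At the TGI there is no net growth.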
# Assays:
# Test in all cases: growth of human tumour cells (NCI), 48 h
# [1] = system: SNB-19 CNS
# [2] = system: MCF7 breast
# [3] = system: HL-60(TB) leukemia
# [4] = system: A549 NSCLC
# [5] = system: NCI-H460 lung
# [6] = system: A498 renal
# [7] = system: HS 578T breast
# [8] = system: NCI/ADR-RES ovarian
# [9] = system: HCT-116 colon
# [10] = system: MALME-3M melanoma
# [11] = system: SF-539 CNS
# [12] = system: NCI-H226 lung
# [13] = system: UACC-62 melanoma
# [14] = system: SK-MEL-28 melanoma
# [15] = system: OVCAR-4 ovarian
# [16] = system: K-562 leukemia
# [17] = system: MDA-MB-231 breast
# [18] = system: BT-549 breast
# [19] = system: LOX IMVI melanoma
# [20] = system: SN12C renal
# [21] = system: OVCAR-5 ovarian
# [22] = system: SF-268 CNS
# [23] = system: SK-MEL-5 melanoma
# [24] = system: SK-OV-3 ovarian
# [25] = system: TK-10 renal
# [26] = system: IGROV1 ovarian
# [27] = system: SNB-75 CNS
# [28] = system: DU-145 prostate
# [29] = system: OVCAR-3 ovarian
# [30] = system: HCT-15 colon
# [31] = system: PC-3 prostate
# [32] = system: EKVX NSCLC
# [33] = system: SF-295 CNS
# [34] = system: HCC-2998 colon
# [35] = system: KM12 colon
# [36] = system: RXF 393 renal
# [37] = system: UACC-257 melanoma
# [38] = system: NCI-H23 lung
# [39] = system: MOLT-4 leukemia
# [40] = system: HOP-62 NSCLC
# [41] = system: CCRF-CEM leukemia
# [42] = system: ACHN renal
# [43] = system: U251 CNS
# [44] = system: COLO 205 colon
# [45] = system: RPMI-8226 leukemia
# [46] = system: SK-MEL-2 melanoma
# [47] = system: OVCAR-8 ovarian
# [48] = system: 786-0 renal
# [49] = system: CAKI-1 renal
# [50] = system: NCI-H522 lung
# [51] = system: M14 melanoma
# [52] = system: HT29 colon
# [53] = system: SW-620 colon
# [54] = system: T-47D breast
# [55] = system: MDA-MB-435
# [56] = system: HOP-92 NSCLC
# [57] = system: UO-31 renal
structure (smiles),measurement,setting,value
N=c1oc2cc(O)ccc2cc1C(=O)Nc1ccccn1,TGI,[1],> 100 µM
same,TGI,[2],> 100 µM
same,TGI,[3],> 100 µM
same,TGI,[4],> 100 µM
same,TGI,[5],> 100 µM
same,TGI,[6],98.2 µM
same,TGI,[7],> 100 µM
same,TGI,[8],> 100 µM
same,TGI,[9],> 100 µM
same,TGI,[10],> 100 µM
same,TGI,[11],> 100 µM
same,TGI,[12],> 100 µM
same,TGI,[13],> 100 µM
same,TGI,[14],> 100 µM
same,TGI,[15],> 100 µM
same,TGI,[16],> 100 µM
same,TGI,[17],> 100 µM
same,TGI,[18],> 100 µM
same,TGI,[19],> 100 µM
same,TGI,[20],> 100 µM
same,TGI,[21],> 100 µM
same,TGI,[22],> 100 µM
same,TGI,[23],> 100 µM
same,TGI,[24],> 100 µM
same,TGI,[25],> 100 µM
same,TGI,[26],> 100 µM
same,TGI,[27],> 100 µM
same,TGI,[28],61 µM
same,TGI,[29],> 100 µM
same,TGI,[30],> 100 µM
same,TGI,[31],> 100 µM
same,TGI,[32],> 100 µM
same,TGI,[33],> 100 µM
same,TGI,[34],> 100 µM
same,TGI,[35],> 100 µM
same,TGI,[36],99.7 µM
same,TGI,[37],> 100 µM
same,TGI,[38],> 100 µM
same,TGI,[39],> 100 µM
same,TGI,[40],> 100 µM
same,TGI,[41],94.2 µM
same,TGI,[42],> 100 µM
same,TGI,[43],> 100 µM
same,TGI,[44],32.8 µM
same,TGI,[45],> 100 µM
same,TGI,[46],97.2 µM
same,TGI,[47],> 100 µM
same,TGI,[48],39.3 µM
same,TGI,[49],> 100 µM
same,TGI,[50],13 µM
same,TGI,[51],> 100 µM
same,TGI,[52],> 100 µM
same,TGI,[53],> 100 µM
same,TGI,[54],> 100 µM
same,TGI,[55],> 100 µM
same,TGI,[56],> 100 µM
O=NNc1ccc(-c2ccccc2)cn1,TGI,[1],> 69 µM
same,TGI,[2],> 23.6 µM
same,TGI,[3],51.9 µM
same,TGI,[4],> 92.3 µM
same,TGI,[5],42.9 µM
same,TGI,[6],32.7 µM
same,TGI,[7],> 58.9 µM
same,TGI,[8],> 43.1 µM
same,TGI,[9],29.9 µM
same,TGI,[57],58 µM
same,TGI,[10],49.8 µM
same,TGI,[11],80.8 µM
same,TGI,[12],> 64.6 µM
same,TGI,[13],31.3 µM
same,TGI,[14],> 80.1 µM
same,TGI,[15],> 70.6 µM
same,TGI,[16],> 100 µM
same,TGI,[17],> 78.1 µM
same,TGI,[18],> 100 µM
same,TGI,[19],28.8 µM
same,TGI,[20],> 35.1 µM
same,TGI,[21],> 77.4 µM
same,TGI,[22],29.2 µM
same,TGI,[23],31.7 µM
same,TGI,[24],> 78.8 µM
same,TGI,[25],69 µM
same,TGI,[26],> 81.3 µM
same,TGI,[27],29.3 µM
same,TGI,[28],9.78 µM
same,TGI,[29],53.1 µM
same,TGI,[30],56.1 µM
same,TGI,[31],61.2 µM
same,TGI,[32],> 51.2 µM
same,TGI,[33],62.2 µM
same,TGI,[34],> 76.4 µM
same,TGI,[35],> 82.1 µM
same,TGI,[36],12.7 µM
same,TGI,[37],> 90.6 µM
same,TGI,[38],25.2 µM
same,TGI,[40],20.6 µM
same,TGI,[41],> 100 µM
same,TGI,[42],15 µM
same,TGI,[43],> 62.5 µM
same,TGI,[44],> 50.3 µM
same,TGI,[46],52 µM
same,TGI,[47],> 100 µM
same,TGI,[48],> 39.2 µM
same,TGI,[49],43.8 µM
same,TGI,[50],49.3 µM
same,TGI,[51],39.2 µM
same,TGI,[52],99.6 µM
same,TGI,[53],> 77 µM
same,TGI,[54],> 77.9 µM
same,TGI,[55],30.9 µM
same,TGI,[56],8.45 µM
